The results in this text go back to US12291519B2, “2-hydroxycycloalkane-1-carbamoyl” (Idorsia Pharmaceuticals Ltd, priority 2019, dated 2025).

For assay [1], the target named is human Gal-3 (hGal-3) (Homo sapiens (Human), UniProt P17931). Briefly: Competitive binding assay: biotinylated hGal-3 binding to microplate-adsorbed asialofetuin (ASF). To be noted: Activity on hGal-3; binding of biotinylated hGal-3 to ASF-coated plates; mean values. Put shortly: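 Serially diluted compounds competed with biotinylated human Gal-3 for binding to plate-adsorbed asialofetuin over 3 h at 4 °C. Bound Gal-3 was detected with streptavidin-peroxidase (80 ng/mL, 1 h, 4 °C) and ABTS substrate. IC50 values are means of several measurements.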
human Gal-3 (hGal-3), sequence (P17931 whole entry): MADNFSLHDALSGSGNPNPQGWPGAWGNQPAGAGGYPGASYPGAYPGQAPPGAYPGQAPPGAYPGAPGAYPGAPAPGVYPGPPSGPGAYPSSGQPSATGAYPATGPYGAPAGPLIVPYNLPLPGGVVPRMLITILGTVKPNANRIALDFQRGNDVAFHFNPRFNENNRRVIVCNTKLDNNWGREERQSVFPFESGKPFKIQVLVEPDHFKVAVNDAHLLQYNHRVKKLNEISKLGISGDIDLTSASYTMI

Assay [2] has as its target human Gal-1 (hGal-1). Kind of assay: Competitive binding assay: biotinylated hGal-1 binding to microplate-adsorbed asialofetuin (ASF). The settings on record: Activity on hGal-1; binding of biotinylated hGal-1 to ASF-coated plates; mean values. The method in brief:
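Inhibition measured as loss of hGal-1 (biotinylated, 300–1000 ng/mL, wild type or Cys→Ser mutant) binding to adsorbed asialofetuin over 3 h at 4 °C. Bound lectin detected with streptavidin-HRP and ABTS (410 nm, 30–45 min); IC50 values averaged across repeat measurements.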

human Gal-1 (hGal-1), sequence (P09382 2-135 limits assumed): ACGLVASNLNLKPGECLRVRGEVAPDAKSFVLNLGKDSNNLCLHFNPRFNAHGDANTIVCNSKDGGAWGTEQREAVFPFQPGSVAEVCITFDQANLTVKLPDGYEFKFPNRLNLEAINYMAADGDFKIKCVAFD

Broadly, the IC50 is the concentration that inhibits the measured activity by half. Higher therefore signals lower potency. `CO[C@@H]1[C@@H](n2cc(-c3cc(F)c(F)c(F)c3)nn2)[C@@H](O)[C@@H](CO)O[C@H]1C(=O)N(c1cc(Cl)cc(C#N)c1)[C@H]1CCCC[C@@H]1O` [Example 88, (2R,3R,4S,5R,6R)-N-(3-chloro-5-cyanophenyl)-5-hydroxy-N-((1S,2S)-2-hydroxycyclohexyl)-6-(hydroxymethyl)-3-methoxy-4-(4-(3,4,5-trifluorophenyl)-1H-1,2,3-triazol-1-yl)tetrahydro-2H-pyran-2-carboxamide]: the IC50 in assay [1] was determined as 13 nM; in assay [2], 157 nM.
For `CO[C@@H]1[C@@H](n2cc(-c3cc(F)c(F)c(F)c3)nn2)[C@@H](O)[C@@H](CO)O[C@H]1C(=O)N(c1cc(Cl)ccc1C)[C@H]1CCCC[C@@H]1O` [Example 89, (2R,3R,4S,5R,6R)-N-(5-chloro-2-methylphenyl)-5-hydroxy-N-((1S,2S)-2-hydroxycyclohexyl)-6-(hydroxymethyl)-3-methoxy-4-(4-(3,4,5-trifluorophenyl)-1H-1,2,3-triazol-1-yl)tetrahydro-2H-pyran-2-carboxamide], in that order: 10 nM and 76 nM.
The corresponding values for `CO[C@@H]1[C@@H](n2cc(-c3cc(F)c(F)c(F)c3)nn2)[C@@H](O)[C@@H](CO)O[C@H]1C(=O)N(c1ccc(F)c(Cl)c1)[C@H]1CCCC[C@@H]1O` [Example 90, (2R,3R,4S,5R,6R)-N-(3-chloro-4-fluorophenyl)-5-hydroxy-N-((1S,2S)-2-hydroxycyclohexyl)-6-(hydroxymethyl)-3-methoxy-4-(4-(3,4,5-trifluorophenyl)-1H-1,2,3-triazol-1-yl)tetrahydro-2H-pyran-2-carboxamide] are 26 nM and 358 nM.
For `CO[C@@H]1[C@@H](n2cc(-c3cc(F)c(F)c(F)c3)nn2)[C@@H](O)[C@@H](CO)O[C@H]1C(=O)N(c1ccc(C(F)(F)F)c(Cl)c1)[C@H]1CCCC[C@@H]1O` [Example 91, (2R,3R,4S,5R,6R)-N-(3-chloro-4-(trifluoromethyl)phenyl)-5-hydroxy-N-((1S,2S)-2-hydroxycyclohexyl)-6-(hydroxymethyl)-3-methoxy-4-(4-(3,4,5-trifluorophenyl)-1H-1,2,3-triazol-1-yl)tetrahydro-2H-pyran-2-carboxamide], in that order: 147 nM and 1540 nM.
On to `CO[C@@H]1[C@@H](n2cc(-c3cc(F)c(F)c(F)c3)nn2)[C@@H](O)[C@@H](CO)O[C@H]1C(=O)N(c1ccc(F)c(Br)c1)[C@H]1CCCC[C@@H]1O` [Example 92, (2R,3R,4S,5R,6R)-N-(3-bromo-4-fluorophenyl)-5-hydroxy-N-((1S,2S)-2-hydroxycyclohexyl)-6-(hydroxymethyl)-3-methoxy-4-(4-(3,4,5-trifluorophenyl)-1H-1,2,3-triazol-1-yl)tetrahydro-2H-pyran-2-carboxamide], for which the figures for the IC50 in assay [1] and in assay [2] were 18 nM and 340 nM, respectively.
The corresponding values for `CO[C@@H]1[C@@H](n2cc(-c3cc(F)c(F)c(F)c3)nn2)[C@@H](O)[C@@H](CO)O[C@H]1C(=O)N(c1ccc2ncsc2c1)[C@H]1CCCC[C@@H]1O` [Example 93, (2R,3R,4S,5R,6R)-N-(benzo[d]thiazol-6-yl)-5-hydroxy-N-((1S,2S)-2-hydroxycyclohexyl)-6-(hydroxymethyl)-3-methoxy-4-(4-(3,4,5-trifluorophenyl)-1H-1,2,3-triazol-1-yl)tetrahydro-2H-pyran-2-carboxamide] are 20 nM and 163 nM.
The corresponding values for `CO[C@@H]1[C@@H](n2cc(-c3cc(F)c(F)c(F)c3)nn2)[C@@H](O)[C@@H](CO)O[C@H]1C(=O)N(c1ccc2nc(C)sc2c1)[C@H]1CCCC[C@@H]1O` [Example 94, (2R,3R,4S,5R,6R)-5-hydroxy-N-((1S,2S)-2-hydroxycyclohexyl)-6-(hydroxymethyl)-3-methoxy-N-(2-methylbenzo[d]thiazol-6-yl)-4-(4-(3,4,5-trifluorophenyl)-1H-1,2,3-triazol-1-yl)tetrahydro-2H-pyran-2-carboxamide] are 31 nM and 254 nM.
The corresponding values for `CO[C@@H]1[C@@H](n2cc(-c3cc(F)c(F)c(F)c3)nn2)[C@@H](O)[C@@H](CO)O[C@H]1C(=O)N(c1cc(Cl)cc(C(F)(F)F)c1)[C@H]1CCCC[C@@H]1O` [Example 95, (2R,3R,4S,5R,6R)-N-(3-chloro-5-(trifluoromethyl)phenyl)-5-hydroxy-N-((1S,2S)-2-hydroxycyclohexyl)-6-(hydroxymethyl)-3-methoxy-4-(4-(3,4,5-trifluorophenyl)-1H-1,2,3-triazol-1-yl)tetrahydro-2H-pyran-2-carboxamide] are 16 nM and 398 nM.
As to `CO[C@@H]1[C@@H](n2cc(-c3cc(F)c(F)c(F)c3)nn2)[C@@H](O)[C@@H](CO)O[C@H]1C(=O)N(c1cc(Cl)cc(Br)c1)[C@H]1CCCC[C@@H]1O` [Example 96, (2R,3R,4S,5R,6R)-N-(3-bromo-5-chlorophenyl)-5-hydroxy-N-((1S,2S)-2-hydroxycyclohexyl)-6-(hydroxymethyl)-3-methoxy-4-(4-(3,4,5-trifluorophenyl)-1H-1,2,3-triazol-1-yl)tetrahydro-2H-pyran-2-carboxamide], the values for the IC50 in assay [1] and in assay [2] were 14 nM and 403 nM, respectively.
For `CO[C@@H]1[C@@H](n2cc(-c3cc(F)c(F)c(F)c3)nn2)[C@@H](O)[C@@H](CO)O[C@H]1C(=O)N(c1cc(Br)cc(Br)c1)[C@H]1CCCC[C@@H]1O` [Example 97, (2R,3R,4S,5R,6R)-N-(3,5-dibromophenyl)-5-hydroxy-N-((1S,2S)-2-hydroxycyclohexyl)-6-(hydroxymethyl)-3-methoxy-4-(4-(3,4,5-trifluorophenyl)-1H-1,2,3-triazol-1-yl)tetrahydro-2H-pyran-2-carboxamide], in that order: 13 nM and 266 nM.
The corresponding values for `CO[C@@H]1[C@@H](n2cc(-c3cc(F)c(F)c(F)c3)nn2)[C@@H](O)[C@@H](CO)O[C@H]1C(=O)N(c1ccc(Cl)c(Br)c1)[C@H]1CCCC[C@@H]1O` [Example 99, (2R,3R,4S,5R,6R)-N-(3-bromo-4-chlorophenyl)-5-hydroxy-N-((1S,2S)-2-hydroxycyclohexyl)-6-(hydroxymethyl)-3-methoxy-4-(4-(3,4,5-trifluorophenyl)-1H-1,2,3-triazol-1-yl)tetrahydro-2H-pyran-2-carboxamide] are 32 nM and 377 nM.
For `CO[C@@H]1[C@@H](n2cc(-c3cc(F)c(F)c(F)c3)nn2)[C@@H](O)[C@@H](CO)O[C@H]1C(=O)N(c1ccccc1)[C@H]1CCCC[C@@H]1O` [Example 100, (2R,3R,4S,5R,6R)-5-hydroxy-N-((1S,2S)-2-hydroxycyclohexyl)-6-(hydroxymethyl)-3-methoxy-N-phenyl-4-(4-(3,4,5-trifluorophenyl)-1H-1,2,3-triazol-1-yl)tetrahydro-2H-pyran-2-carboxamide], in that order: 73 nM and 18600 nM.
Turning to `COc1cccc(N(C(=O)[C@@H]2O[C@H](CO)[C@H](O)[C@H](n3cc(-c4cc(F)c(F)c(F)c4)nn3)[C@H]2OC)[C@H]2CCCC[C@@H]2O)c1` [Example 101, (2R,3R,4S,5R,6R)-5-hydroxy-N-((1S,2S)-2-hydroxycyclohexyl)-6-(hydroxymethyl)-3-methoxy-N-(3-methoxyphenyl)-4-(4-(3,4,5-trifluorophenyl)-1H-1,2,3-triazol-1-yl)tetrahydro-2H-pyran-2-carboxamide], the values for the half-maximal inhibitory concentration (IC50) in assay [1] and in assay [2] were 36 nM and 800 nM, respectively.
For `CO[C@@H]1[C@@H](n2cc(-c3cc(F)c(F)c(F)c3)nn2)[C@@H](O)[C@@H](CO)O[C@H]1C(=O)N(c1ccc2ccsc2c1)[C@H]1CCCC[C@@H]1O` [Example 102, (2R,3R,4S,5R,6R)-N-(benzo[b]thiophen-6-yl)-5-hydroxy-N-((1S,2S)-2-hydroxycyclohexyl)-6-(hydroxymethyl)-3-methoxy-4-(4-(3,4,5-trifluorophenyl)-1H-1,2,3-triazol-1-yl)tetrahydro-2H-pyran-2-carboxamide], in that order: 43 nM and 1240 nM.
The corresponding values for `CO[C@@H]1[C@@H](n2cc(-c3cc(F)c(F)c(F)c3)nn2)[C@@H](O)[C@@H](CO)O[C@H]1C(=O)N(c1cccc(Br)c1)[C@H]1CCCC[C@@H]1O` [Example 103, (2R,3R,4S,5R,6R)-N-(3-bromophenyl)-5-hydroxy-N-((1S,2S)-2-hydroxycyclohexyl)-6-(hydroxymethyl)-3-methoxy-4-(4-(3,4,5-trifluorophenyl)-1H-1,2,3-triazol-1-yl)tetrahydro-2H-pyran-2-carboxamide] are 25 nM and 238 nM.
The corresponding values for `COc1cc(Cl)cc(N(C(=O)[C@@H]2O[C@H](CO)[C@H](O)[C@H](n3cc(-c4cc(F)c(F)c(F)c4)nn3)[C@H]2OC)[C@H]2CCCC[C@@H]2O)c1` [Example 104, (2R,3R,4S,5R,6R)-N-(3-chloro-5-methoxyphenyl)-5-hydroxy-N-((1S,2S)-2-hydroxycyclohexyl)-6-(hydroxymethyl)-3-methoxy-4-(4-(3,4,5-trifluorophenyl)-1H-1,2,3-triazol-1-yl)tetrahydro-2H-pyran-2-carboxamide] are 19 nM and 1190 nM.
In the case of `CO[C@@H]1[C@@H](n2cc(-c3cc(F)c(F)c(F)c3)nn2)[C@@H](O)[C@@H](CO)O[C@H]1C(=O)N(c1cc(Cl)ccc1F)[C@H]1CCCC[C@@H]1O` [Example 105, (2R,3R,4S,5R,6R)-N-(5-chloro-2-fluorophenyl)-5-hydroxy-N-((1S,2S)-2-hydroxycyclohexyl)-6-(hydroxymethyl)-3-methoxy-4-(4-(3,4,5-trifluorophenyl)-1H-1,2,3-triazol-1-yl)tetrahydro-2H-pyran-2-carboxamide], the half-maximal inhibitory concentration (IC50) in assay [1] was 14 nM; in assay [2] it was 136 nM.
